From US20240393292A1, “ALLERGY ANTIGEN AND EPITOPE THEREOF” (HOYU CO., LTD., priority 2019, published 2024)

Test system: IgE antibodies from patients
Test: Wheat epitope mapping (2): overlapping 10-amino-acid peptide fragments shifted by one amino acid;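 on Rank of partial sequence as epitope binding to IgE antibody: key = sequence deemed particularly important within the common 15-residue sequence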;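 on epitope sequence binding to IgE antibody, rank (Key/Preferably/More preferably): key of grades: preferably = shorter partial sequence still acting as epitope; more preferably = sequence improving IgE binding; key = particularly important sequence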
Type: binding, human
Conditions: for Rank of partial sequence as epitope binding to IgE antibody: sequence without X
Procedure, shortened: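 Cellulose-bound 10-mer peptides offset by one residue were probed with patient serum IgE and detected by chemiluminescence. Secondary-antibody-only signals were subtracted per peptide. Residual binding was expressed as % of the parent overlapping peptide, scored as none (<30%), poor (30–<50%), somewhat poor (50–<70%) or retained (≥70%).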

[1] = serum of patient G2 (adult, general immediate type allergy to wheat)
[2] = serum of patient G3 (adult, general immediate type allergy to wheat)
[3] = serum of patient G4 (adult, general immediate type allergy to wheat)
[4] = serum of patient G5 (adult, general immediate type allergy to wheat)
[5] = serum of patient G6 (adult, general immediate type allergy to wheat)
[6] = serum of patient G9 (adult, general immediate type allergy to wheat)
[7] = serum of patient P50 (child, general immediate type allergy to wheat)
[8] = serum of patient P51 (child, general immediate type allergy to wheat)
[9] = serum of patient P52 (child, general immediate type allergy to wheat)
[10] = serum of patient P56 (child, general immediate type allergy to wheat)
[11] = serum of patient P57 (child, general immediate type allergy to wheat)

In the case of “1663 (YNPDKVPFV; REGION 1..9: note = epitope) [compound 1663]”, the “Rank of partial sequence as epitope binding to IgE antibody” value (“Rank of partial sequence” below) [1] is reported as “Preferably”.

In the case of “1664 (YNPDKVPF; REGION 1..8: note = epitope) [compound 1664]”, the “Rank of partial sequence” value [1] is reported as “Key”.

“1665 (VPFVPISG; REGION 1..8: note = epitope) [compound 1665]” was tested, and the “Rank of partial sequence” value [1] was “Key”.

“1666 (YNPDKVP; REGION 1..7: note = epitope) [compound 1666]” was tested, and the “Rank of partial sequence” value [2] was “Preferably”.

In the case of “1667 (NPDKVP; REGION 1..6: note = epitope) [compound 1667]”, the “Rank of partial sequence” value [2] is reported as “Key”.

With “1668 (FVPISG; REGION 1..6: note = epitope) [compound 1668]” the “Rank of partial sequence” value [2] was “Key”.

For “1669 (GYNPDKVPFV; REGION 1..10: note = epitope) [compound 1669]”, the “Rank of partial sequence” value [3] was “More preferably”.

For “1670 (YNPDKVPFV; REGION 1..9: note = epitope) [compound 1670]”, the “Rank of partial sequence” value [3] was “Preferably”.

For “1671 (YNPDKVPF; REGION 1..8: note = epitope) [compound 1671]”, the “Rank of partial sequence” value [3] was “Key”.

With “1672 (PDKVPFVPIS; REGION 1..10: note = epitope) [compound 1672]” the “Rank of partial sequence” value [3] was “Key”.

“1676 (KVPFVPISG; REGION 1..9: note = epitope) [compound 1676]” was tested, and the “Rank of partial sequence” value [4] was “Preferably”.

For “1677 (PFVPISG; REGION 1..7: note = epitope) [compound 1677]”, the “Rank of partial sequence” value [4] was “Key”.

In the case of “1680 (YNPDKVPF; REGION 1..8: note = epitope) [compound 1680]”, the “Rank of partial sequence” value [5] is reported as “More preferably”.

For “1681 (DKVPF; REGION 1..5: note = epitope) [compound 1681]”, the “Rank of partial sequence” value [5] was “Preferably”.

“1683 (YNPDKVPF; REGION 1..8: note = epitope) [compound 1683]” was tested, and the “Rank of partial sequence” value [6] was “Key”.

With “1684 (FVPISG; REGION 1..6: note = epitope) [compound 1684]” the “Rank of partial sequence” value [6] was “Key”.

In the case of “1687 (EAANFT; REGION 1..6: note = epitope) [compound 1687]”, the “Rank of partial sequence” value (serum of patient P5 (WDEIA)) is reported as “Key”.

In the case of “1688 (KEAA; REGION 1..4: note = epitope) [compound 1688]”, the “Rank of partial sequence” value (serum of patient P14 (WDEIA)) is reported as “Key”.

For “1689 (SQVIIM; REGION 1..6: note = epitope) [compound 1689]”, the “Rank of partial sequence” value (serum of patient P14 (WDEIA)) was “Key”.

In the case of “1690 (EAANFT; REGION 1..6: note = epitope) [compound 1690]”, the “Rank of partial sequence” value (serum of patient P16 (WDEIA)) is reported as “Key”.

In the case of “1693 (KEAANFTS; REGION 1..8: note = epitope) [compound 1693]”, the “Rank of partial sequence” value (serum of patient P19 (WDEIA)) is reported as “Preferably”.

For “1694 (EAANFTS; REGION 1..7: note = epitope) [compound 1694]”, the “Rank of partial sequence” value (serum of patient P19 (WDEIA)) was “Key”.

In the case of “1695 (EAANFT; REGION 1..6: note = epitope) [compound 1695]”, the “Rank of partial sequence” value (serum of patient P20 (WDEIA)) is reported as “Key”.

With “1698 (KEAANFT; REGION 1..7: note = epitope) [compound 1698]” the “Rank of partial sequence” value (serum of patient P21 (WDEIA)) was “More preferably”.

With “1699 (EAANFT; REGION 1..6: note = epitope) [compound 1699]” the “Rank of partial sequence” value (serum of patient P21 (WDEIA)) was “Preferably”.

In the case of “1701 (EAANFT; REGION 1..6: note = epitope) [compound 1701]”, the “Rank of partial sequence” value (serum of patient P25 (WDEIA)) is reported as “Key”.

With “1702 (SQVIIM; REGION 1..6: note = epitope) [compound 1702]” the “Rank of partial sequence” value (serum of patient P25 (WDEIA)) was “Key”.

With “1703 (EAANFT; REGION 1..6: note = epitope) [compound 1703]” the “Rank of partial sequence” value (serum of patient P27 (WDEIA)) was “Key”.

In the case of “1704 (EAANFT; REGION 1..6: note = epitope) [compound 1704]”, the “Rank of partial sequence” value (serum of patient P28 (WDEIA)) is reported as “Key”.

“1706 (EAANFT; REGION 1..6: note = epitope) [compound 1706]” was tested, and the “Rank of partial sequence” value (serum of patient P29 (WDEIA)) was “Key”.

For “1707 (SQVIIM; REGION 1..6: note = epitope) [compound 1707]”, the “Rank of partial sequence” value (serum of patient P29 (WDEIA)) was “Key”.

For “1710 (KEAANFTS; REGION 1..8: note = epitope) [compound 1710]”, the “epitope sequence binding to IgE antibody, rank (Key/Preferably/More preferably)” value (serum of patient P34 (WDEIA)) was “More preferably”.

With “1711 (KEAANFT; REGION 1..7: note = epitope) [compound 1711]” the “epitope sequence binding to IgE antibody, rank (Key/Preferably/More preferably)” value (serum of patient P34 (WDEIA)) was “Preferably”.

With “1712 (EAANF; REGION 1..5: note = epitope) [compound 1712]” the “epitope sequence binding to IgE antibody, rank (Key/Preferably/More preferably)” value (serum of patient P34 (WDEIA)) was “Key”.

In the case of “1714 (KEAANF; REGION 1..6: note = epitope) [compound 1714]”, the “epitope sequence binding to IgE antibody, rank (Key/Preferably/More preferably)” value (serum of patient P35 (WDEIA)) is reported as “Preferably”.

For “1715 (KEAA; REGION 1..4: note = epitope) [compound 1715]”, the “epitope sequence binding to IgE antibody, rank (Key/Preferably/More preferably)” value (serum of patient P35 (WDEIA)) was “Key”.

With “1716 (SQVIIM; REGION 1..6: note = epitope) [compound 1716]” the “epitope sequence binding to IgE antibody, rank (Key/Preferably/More preferably)” value (serum of patient P35 (WDEIA)) was “Key”.

With “1718 (EAANFT; REGION 1..6: note = epitope) [compound 1718]” the “epitope sequence binding to IgE antibody, rank (Key/Preferably/More preferably)” value (serum of patient P36 (WDEIA)) was “More preferably”.

For “1719 (EAANF; REGION 1..5: note = epitope) [compound 1719]”, the “epitope sequence binding to IgE antibody, rank (Key/Preferably/More preferably)” value (serum of patient P36 (WDEIA)) was “Preferably”.

For “1722 (KEAANFT; REGION 1..7: note = epitope) [compound 1722]”, the “epitope sequence binding to IgE antibody, rank (Key/Preferably/More preferably)” value [7] was “Preferably”.

In the case of “1723 (KEAANF; REGION 1..6: note = epitope) [compound 1723]”, the “epitope sequence binding to IgE antibody, rank (Key/Preferably/More preferably)” value [7] is reported as “Key”.

For “1726 (KEAANFTS; REGION 1..8: note = epitope) [compound 1726]”, the “epitope sequence binding to IgE antibody, rank (Key/Preferably/More preferably)” value [8] was “Preferably”.

In the case of “1727 (KEAANF; REGION 1..6: note = epitope) [compound 1727]”, the “epitope sequence binding to IgE antibody, rank (Key/Preferably/More preferably)” value [8] is reported as “Key”.

With “1728 (KEAANF; REGION 1..6: note = epitope) [compound 1728]” the “epitope sequence binding to IgE antibody, rank (Key/Preferably/More preferably)” value [9] was “Key”.

In the case of “1729 (ANFTSQVIIM; REGION 1..10: note = epitope) [compound 1729]”, the “epitope sequence binding to IgE antibody, rank (Key/Preferably/More preferably)” value [9] is reported as “Preferably”.

For “1730 (SQVIIM; REGION 1..6: note = epitope) [compound 1730]”, the “epitope sequence binding to IgE antibody, rank (Key/Preferably/More preferably)” value [9] was “Key”.

With “1732 (KEAA; REGION 1..4: note = epitope) [compound 1732]” the “epitope sequence binding to IgE antibody, rank (Key/Preferably/More preferably)” value (serum of patient P53 (child, general immediate type allergy to wheat)) was “Key”.

“1734 (KEAANFT; REGION 1..7: note = epitope) [compound 1734]” was tested, and the “epitope sequence binding to IgE antibody, rank (Key/Preferably/More preferably)” value [10] was “Preferably”.

In the case of “1735 (EAANFT; REGION 1..6: note = epitope) [compound 1735]”, the “epitope sequence binding to IgE antibody, rank (Key/Preferably/More preferably)” value [10] is reported as “Key”.

In the case of “1737 (KEAANFT; REGION 1..7: note = epitope) [compound 1737]”, the “epitope sequence binding to IgE antibody, rank (Key/Preferably/More preferably)” value [11] is reported as “Preferably”.

In the case of “1738 (EAANF; REGION 1..5: note = epitope) [compound 1738]”, the “epitope sequence binding to IgE antibody, rank (Key/Preferably/More preferably)” value [11] is reported as “Key”.
